Test results as given in article PMC6514705, “QuinoxalineTacrine QT78, a Cholinesterase Inhibitor as a Potential Ligand for Alzheimer’s Disease Therapy” (Molecules, 2019).

Tests used:
[1] = molecular target: T1, human recombinant AChE (Homo sapiens, UniProt P22303); assay: Inhibition of human AChE (Ellman's assay); assay type: biochemical; settings: 20 min preincubation at 37 °C, pH 8.0, read-out: IC50 (hAChE)
T1 construct: purchased Sigma-Aldrich, Milan, Italy
Experimental: (§1) Next, the in vitro inhibition of human acetylcholinesterase (hAChE) and human butyrylcholinesterase (hBuChE) was assessed according to the method of Ellman
(§2) The ability of QT78 to inhibit human ChE activity was assessed using Ellman’s assay. A Jasco V-530 double beam spectrophotometer connected to a HAAKE DC30 thermostating system (Thermo Haake, Vreden, Germany) was used. […] Either 50 µL of a solution of the tested compound at increasing concentrations or 50 µL of solvent (methanol or water) were added to the assay solution and preincubated at 37 °C with the enzyme for 20 min before the addition of substrate. […] In parallel, blanks containing all components except the enzyme were prepared to account for the non-enzymatic hydrolysis of the substrate. The reaction rates were compared and the percentage of inhibition due to the presence of test compound was calculated. Each concentration was analyzed in duplicate/triplicate. The percentage of inhibition of the enzyme activity due to the presence of inhibitor was calculated. Inhibition plots were obtained for each compound by plotting the percentage of inhibition versus the logarithm of inhibitor concentration in the assay solution. The linear regression parameters were determined for each curve and the IC50 extrapolated.

[2] = molecular target: T2, BuChE from human serum (Homo sapiens, UniProt P06276); assay: Inhibition of human BuChE (Ellman's assay); assay type: biochemical; settings: 20 min preincubation at 37 °C, pH 8.0, read-out: IC50 (hBuChE)
T2 construct: BuChE from human serum (Sigma-Aldrich, Milan, Italy); purchased Sigma-Aldrich, Milan, Italy; host or cells: human serum
Experimental: as §1, §2

[3] = in vitro; assay type: cell-based; settings: human
Experimental: The human hepatoma HepG2 cell line was kindly provided by the IdiPAZ Institute for Health Research (Madrid, Spain). They were cultured in Eagle´s minimum essential medium (EMEM) supplemented with 15 nonessential amino acids, 1 mM sodium pyruvate, 10 % heat-inactivated FBS, 100 units/mL penicillin, and 100 µg/mL streptomycin (reagents from Invitrogen, Madrid, Spain). […] Culture media were changed every 2 days. […] For assays, cells were subcultured in 96-well plates at a seeding density of 1 × 10^5 cells per well.
MTT reduction was performed as described for both HepG2 and SH-SY5Y human cell lines. Briefly, 50 µL of the MTT labeling reagent, at a final concentration of 0.5 mg/mL, was added. […] Colorimetric determination of MTT reduction was measured in an ELISA microplate reader at 540 nm. Non-treated cells were considered controls and were taken as 100% viability.

[4] = system: SH-SY5Y cells; assay: Neuroprotection in SH-SY5Y cells against rotenone/oligomycin A (R/O) toxicity (MTT); assay type: cell-based, human; settings: 1 μM compound, compared with lower concentrations
Experimental: (§3) Finally, following the protocols described in the Supporting Information, we evaluated the neuroprotective profile of QT78 against two toxic insults related to neurodegeneration, using melatonin (10 nM) as a reference compound: (a) a model of reactive oxygen species (ROS) generation, based on the cocktail of the mitochondrial respiratory chain blockers rotenone and oligomycin A (R/O), and (b) hyperphosphorylation of tau protein using okadaic acid (OA), a well-known protein phosphatase inhibitor.
(§4) Human SH-SY5Y cells were maintained in a 1:1 mixture of Nutrient Mixture F-12 and Eagle´s minimum essential medium (EMEM) supplemented with 15 nonessential amino acids, 1 mM sodium pyruvate, 10% heat-inactivated FBS, 100 units/mL penicillin, and 100 μg/mL streptomycin. Cultures were seeded into flasks containing supplemented medium and maintained at 37 °C in a humidified atmosphere of 5% CO2 and 95% air. For assays, SH-SY5Y cells were sub-cultured in 96-well plates at a seeding density of 5 × 10^4 cells per well for 2 days. […]
(§5) MTT reduction was performed as described for both HepG2 and SH-SY5Y human cell lines. […] Colorimetric determination of MTT reduction was measured in an ELISA microplate reader at 540 nm. […]

[5] = system: SH-SY5Y cells; assay: Neuroprotection in SH-SY5Y cells against okadaic acid (OA) toxicity (MTT); assay type: cell-based, human; settings: 1 μM compound, compared with lower concentrations
Experimental: as §3, §4, §5

T1 sequence (P22303 32-614): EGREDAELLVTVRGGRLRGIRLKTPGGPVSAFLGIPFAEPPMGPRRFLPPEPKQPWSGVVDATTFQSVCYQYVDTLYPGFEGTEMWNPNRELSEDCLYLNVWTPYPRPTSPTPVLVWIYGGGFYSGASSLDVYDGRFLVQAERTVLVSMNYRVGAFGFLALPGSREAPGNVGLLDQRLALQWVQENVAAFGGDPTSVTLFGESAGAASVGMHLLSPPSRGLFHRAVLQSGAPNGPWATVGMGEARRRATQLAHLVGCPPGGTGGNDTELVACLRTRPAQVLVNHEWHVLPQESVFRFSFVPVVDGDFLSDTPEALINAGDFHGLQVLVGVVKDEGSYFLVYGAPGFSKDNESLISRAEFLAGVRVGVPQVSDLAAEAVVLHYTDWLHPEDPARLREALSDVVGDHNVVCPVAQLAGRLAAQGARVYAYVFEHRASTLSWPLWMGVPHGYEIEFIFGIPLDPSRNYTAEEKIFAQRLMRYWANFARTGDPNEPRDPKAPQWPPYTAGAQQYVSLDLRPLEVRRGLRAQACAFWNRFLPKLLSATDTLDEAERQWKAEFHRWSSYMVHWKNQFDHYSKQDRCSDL
T2 sequence (P06276 29-602): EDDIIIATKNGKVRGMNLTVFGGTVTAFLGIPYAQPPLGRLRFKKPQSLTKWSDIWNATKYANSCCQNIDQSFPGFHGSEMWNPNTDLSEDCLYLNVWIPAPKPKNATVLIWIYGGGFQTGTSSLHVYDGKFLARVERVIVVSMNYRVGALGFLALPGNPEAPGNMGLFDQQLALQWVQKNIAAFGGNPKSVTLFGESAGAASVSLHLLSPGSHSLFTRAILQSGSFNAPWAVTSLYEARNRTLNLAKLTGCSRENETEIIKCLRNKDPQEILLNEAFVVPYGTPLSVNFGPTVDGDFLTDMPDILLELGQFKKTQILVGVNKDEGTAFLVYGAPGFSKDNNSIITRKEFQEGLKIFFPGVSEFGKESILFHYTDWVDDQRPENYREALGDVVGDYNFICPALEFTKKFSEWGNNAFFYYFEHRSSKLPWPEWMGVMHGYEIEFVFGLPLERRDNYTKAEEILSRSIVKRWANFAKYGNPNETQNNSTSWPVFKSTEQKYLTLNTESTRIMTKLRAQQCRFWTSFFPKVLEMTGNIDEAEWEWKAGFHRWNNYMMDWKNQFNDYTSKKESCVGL

Nc1c2c(nc3nc4ccccc4nc13)CCCC2 [QT78, 1,2,3,4-tetrahydroquinolino[2,3-b]quinoxalin-12-amine]
IC50 [1]: 22 ± 1.3 µM | IC50 [2]: 6.79 ± 0.33 µM | viability at 24 h, 1 µM [3]: 96.7 ± 2.14% | viability at 24 h, 3 µM [3]: 97.6 ± 2.2% | viability at 24 h, 10 µM [3]: 97.1 ± 1.64% | viability at 24 h, 30 µM [3]: 95.1 ± 1.5% | viability at 24 h, 100 µM [3]: 90.5 ± 1.86% | viability at 24 h, 300 µM [3]: 78.1 ± 0.94% | viability at 24 h, 1000 µM [3]: 68.3 ± 2.92% | protective capacity against R/O [4]: the protective capacity decreased | protective capacity against OA [5]: the protective capacity decreased
